Assay results: US20110166152A1, “HETEROAROMATIC COMPOUNDS AS INHIBITORS OF STEAROYL-COENZYME A DELTA-9 DESATURASE” (priority 2008, published 2011)

Biological target: T1, human SCD1 (Homo sapiens, UniProt O00767)
T1 construct: made in house; host or cells: baculovirus/Sf9 insect cells
T1 sequence (O00767 1-359): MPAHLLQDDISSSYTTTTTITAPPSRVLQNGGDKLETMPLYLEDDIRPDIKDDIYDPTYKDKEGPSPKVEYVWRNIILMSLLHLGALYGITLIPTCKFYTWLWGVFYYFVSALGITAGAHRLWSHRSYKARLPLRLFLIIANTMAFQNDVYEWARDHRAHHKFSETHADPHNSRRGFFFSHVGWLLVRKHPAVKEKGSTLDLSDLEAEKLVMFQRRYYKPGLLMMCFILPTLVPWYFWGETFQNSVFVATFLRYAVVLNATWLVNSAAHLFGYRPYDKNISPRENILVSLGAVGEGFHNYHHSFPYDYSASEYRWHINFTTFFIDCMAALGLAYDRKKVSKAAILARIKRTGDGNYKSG
Assay: SCD enzyme activity assay, reconstituted human SCD1 ([3H]-stearoyl-CoA conversion)
Type: biochemical
Conditions: read-out: IC50 hSCD-1
Procedure: The potency of compounds of formula I against the stearoyl-CoA desaturase was determined by measuring the conversion of radiolabeled stearoyl-CoA to oleoyl-CoA using rat liver microsome or human SCD1 following previously published procedures with some modifications (Joshi, et al., J. Lipid Res., 18: 32-36 (1977); Talamo, et al., Anal. Biochem, 29: 300-304 (1969)). Liver microsome was prepared from male Wistar or Sprague Dawley rats on a high carbohydrate diet for 3 days (LabDiet #5803, Purina). The livers were homogenized (1:10 w/v) in a buffer containing 250 mM sucrose, 1 mM EDTA, 5 mM DTT and 50 mM Tris-HCl (pH 7.5). After a 100,000×g centrifugation for 60 min, the liver microsome pellet was suspended in a buffer containing 100 mM sodium phosphate, 20% glycerol, 2 mM DTT, and stored at −78° C. Human SCD1 desaturase system was reconstituted using human SCD1 from a baculovirus/Sf9 expression system, cytochrome B5 and cytochrome B5 reductase. Typically, test compound in 2 μL DMSO was incubated for 15 min at room temperature with 180 μL of the SCD enzyme in a buffer containing 100 mM Tris-HCl (pH 7.5), ATP (5 mM), Coenzyme-A (0.1 mM), Triton X-100 (0.5 mM) and NADH (2 mM). The reaction was initiated by the addition of 20 μL of [^3H]-stearoyl-CoA (final concentration=2 μM, radioactivity concentration=1 μCi/mL). After 10 min, the reaction mixture (80 μL) was mixed with a calcium chloride/charcoal aqueous suspension (100 μL charcoal (10% w/v) plus 25 μL CaCl2 (2N). After centrifugation to precipitate the radioactive fatty acid species, tritiated water released from 9,10-[^3H]-stearoyl-CoA by the SCD enzyme was quantified on a scintillation counter.

Row | SMILES | IC50 [µM]
1 | Oc1cnc2nc(-c3cn(Cc4cc(Cl)c(Cl)c(Cl)c4)nn3)sc2n1 | 0.048
2 | OCc1ccn2cc(-c3cn(Cc4cc(Cl)c(Cl)c(Cl)c4)nn3)nc2c1 | 0.039

The next molecules have a lower IC50 than those just listed; values first:

Row | IC50 [µM] | SMILES
3 | 0.014 | O=C(O)c1ccc2nc(-c3cn(Cc4cc(Br)c(Br)c(Br)c4)nn3)sc2c1
4 | 0.016 | CCOC(=O)Nc1nc2ncc(-c3cn(Cc4cc(Br)c(Br)c(Br)c4)nn3)nc2s1
5 | 0.031 | O=C(O)CNc1nc2cnc(-c3cn(Cc4cc(Cl)c(Cl)c(Cl)c4)nn3)nc2s1
